{
  "source": "patent US12721832B2",
  "about": "“Anti-senescence plant polyphenol drug downregulating senescence-related secretory phenotype and use thereof” (BYHEALTH CO., LTD., priority 2021, dated 2026)",
  "key": {"senescent PSC27 cells": {"system": "senescent PSC27 cells", "assay": "Caspase 3/7 activity / drug-induced apoptosis in senescent cells", "assay_type": "cell-based, human", "method": "PSC27 cells gradually entered the senescent stage after being treated with BLEO for 12 hours under culture conditions. 50 μM PCC1 was added to the medium of senescent cells starting from day 7, NucLight Rapid Red reagent was used to label the cells, and caspase 3/7 reagent (IncuCyte) was used for apoptosis detection. Caspase 3/7 activity was detected every 4 hours (n=3).\nStatistical differences are obtained by two-way ANOVA (Turkey' test).\nPSC27 cells were plated in a 96-well dish, and the cells were induced to senescence under the treatment of 50 μg/mL BLEO. PCC1 and ABT263 were added at concentrations of 50 μM and 1.0 μM, respectively. Cell culture medium was supplemented with Incucyte Nuclight fast Red Reagent (Essen Bioscience) and Incucyte C-3/7 Apoptosis Reagent (Essen Bioscience). Representative field of view was selected to take pictures."}, "PSC27 cells": {"system": "PSC27 cells", "assay": "CCK8 cell viability of proliferating and senescent PSC27 under increasing PCC1", "assay_type": "cell-based, human", "method": "P value at each PCC1 concentration is the significant difference after comparison between CTRL and BLEO groups. **, P<0.01; ***, P<0.001; ****, P<0.0001.\nPharmacodynamic analysis was conducted on a natural product library (BY-HEALTH) with a total of 41 components, most of which were medicinal plant extracts and had anti-senescence potential. Each product was diluted to a 96-well plate according to a certain concentration gradient, and the density was 5000 cells per well. The medium uses DMEM, and the working concentration of natural product (or compound) is generally controlled at 1 μM to 1 mM. After 3-7 days of drug treatment, cell proliferation was measured with CCK-8 Cell Counting Kit (based on WST-8 principle, Vazyme), and cell apoptosis activity was determined with Caspase 3/7 Activity Kit (Promega)."}, "[1]": {"system": "cancer cells in the lesion", "assay": "DNA damage and apoptosis in tumor lesions (LCM, caspase 3 cleavage IHC)", "assay_type": "in vivo, mice", "excerpt": "The signals of Caspase 3 cleaved […] in the lesion of each group of mice were in sharp contrast. Scale bar, 200 μm.\nTo investigate mechanisms directly supporting this senescence-associated pattern with expression and reversal of SASP in MIT-administered mice, we dissected tumors in animals treated with both drugs 7 days after the first PCC1 administration, and the time point of 7 days after administration was selected mainly because drug-resistant clones had not yet formed in cancer cells in the lesion at this time. […] As supporting evidence, when PCC1 was applied during treatment, caspase 3 cleavage activity was increased, which was a typical hallmark of apoptosis (FIG. 29)."}},
  "data": [
    {"smiles": "Oc1cc(O)c2c(c1)O[C@H](c1ccc(O)c(O)c1)[C@H](O)[C@H]2c1c(O)cc(O)c2c1O[C@H](c1ccc(O)c(O)c1)[C@H](O)[C@H]2c1c(O)cc(O)c2c1O[C@H](c1ccc(O)c(O)c1)[C@H](O)C2", "note": "[PCC1, procyanidin C1]", "values": [
      {"measurement": "time after addition from which caspase-3/7 activity differs statistically between senescent and control group", "setting": "senescent PSC27 cells; 50 μM PCC1", "result": 16, "unit": "h"},
      {"measurement": "effect on proliferating cells (apoptosis)", "setting": "senescent PSC27 cells; proliferating PSC27", "result": "basically not targeted or affected"},
      {"measurement": "survival of proliferating cells", "setting": "PSC27 cells; proliferating PSC27, 200 μM PCC1", "result": "not significantly reduced"},
      {"measurement": "percentage of surviving senescent cells", "setting": "PSC27 cells; senescent PSC27, 200 μM PCC1", "result": "approximately 10%"},
      {"measurement": "concentration from which significant death of senescent cells is induced", "setting": "PSC27 cells; senescent vs control proliferating cells, CCK8", "result": 50, "unit": "µM"},
      {"measurement": "indices of DNA damage or apoptosis", "setting": "[1]; PCC1 administered to MIT-treated animals", "result": "significantly enhanced"},
      {"measurement": "caspase 3 cleavage activity", "setting": "[1]; PCC1 applied during MIT treatment", "result": "increased"},
      {"measurement": "degree of DNA damage and apoptosis", "setting": "[1]; single agent vs placebo, 7 days after first PCC1 administration", "result": "could not induce DNA damage or cause apoptosis"}
    ]}
  ]
}
